Results: patent US11208410B2, “Heterocycle-bound condensed heterocyclic compound or salt thereof, agricultural and horticultural insecticide comprising the compound, and method for using the insecticide” (Nihon Nohyaku Co., Ltd., priority 2016, dated 2021)

Key:
[1] = test system: Laodelphax striatella; assay: Insecticidal test on Laodelphax striatella (rice seedling dip); type: in vivo; settings: Laodelphax striatellus, 192 h, rice seedlings dipped 30 seconds, 3rd-instar larvae, 8 days after inoculation, read-out: insecticidal effect (corrected mortality rate), activity level
Source text: Insecticidal test on Laodelphax striatella
The heterocycle-bound condensed heterocyclic compounds represented by the general formula (1) of the present invention or salts thereof were separately dispersed in water and diluted to 500 ppm. Rice plant seedlings (variety: Nihonbare) were dipped in the agrochemical dispersions for 30 seconds. After air-dried, each seedling was put into a separate glass test tube and inoculated with ten 3rd-instar larvae of Laodelphax striatella, and then the glass test tubes were capped with cotton plugs. At 8 days after the inoculation, the numbers of surviving larvae and dead larvae were counted, the corrected mortality rate was calculated according to the formula shown below, and the insecticidal effect was evaluated according to the criteria shown below. Corrected mortality rate (%)=100×(Survival rate in a non-treatment plot−Survival rate in a treatment plot)/Survival rate in a non-treatment plot [Math. 2] Criteria A: the corrected mortality rate is 100%. B: the corrected mortality rate is 90 to 99%. C: the corrected mortality rate is 80 to 89%. D: the corrected mortality rate is 50 to 79%.

[2] = test system: Plutella xylostella; assay: Insecticidal test on Plutella xylostella (dip of Chinese cabbage seedlings with laid eggs); type: in vivo; settings: 144 h, seedlings with laid eggs dipped about 30 seconds, 25° C., 6 days after dip treatment, read-out: insecticidal effect (corrected mortality rate), activity level
Source text: Insecticidal Test on Plutella xylostella
Adults of Plutella xylostella were released onto Chinese cabbage seedlings and allowed to lay eggs thereon. At 2 days after the release of the adults, the Chinese cabbage seedlings with laid eggs were dipped for about 30 seconds in agrochemical dispersions diluted to 500 ppm, each of which contained a different kind of heterocycle-bound condensed heterocyclic compound represented by the general formula (1) of the present invention as an active ingredient. After air-dried, the seedlings were kept in a thermostatic chamber at 25° C. At 6 days after the dip treatment, the number of hatched larvae per plot was counted, the mortality rate was calculated according to the formula shown below, and the insecticidal effect was evaluated according to the criteria of Test Example 2. This test was conducted in triplicate using 10 adults of Plutella xylostella per plot. Corrected mortality rate (%)=100×(Number of hatched larvae in a non-treatment plot−Number of hatched larvae in a treatment plot)/Number of hatched larvae in a non-treatment plot [Math. 3]

Structure (SMILES) | mortality at 500 ppm [1] | mortality at 500 ppm [2]
CCS(=O)(=O)c1cc(-c2noc(C(F)(F)F)n2)cnc1-c1nc2cc(C(F)(F)C(F)(F)F)nnc2n1C [Compound 1-41, 3-{2-(3-Methyl-6-pentafluoroethyl-3H-imidazo[4,5-C]pyridazin-2-yl)-3-(ethylsulfonyl)pyridin-5-yl}-5-trifluoromethyl-1,2,4-oxadiazole] | 100% | 100%
CCS(=O)(=O)c1cc(-c2nc(-c3ccccc3)no2)cnc1-c1nc2cc(C(F)(F)C(F)(F)F)nnc2n1C [Compound 2-56, 5-{2-(3-Methyl-6-pentafluoroethyl-3H-imidazo[4,5-C]pyridazin-2-yl)-3-(ethylsulfonyl)pyridin-5-yl}-3-phenyl-1,2,4-oxadiazole] | 100% | 100%
